Earlier results as cited in patent publication US20040086873A1, “System and method of generating and storing correlated hyperquantified tissue structure and biomolecular expression datasets” (priority 2002, published 2004).

Details: 1000 mg/kg/day, intraperitoneal injection once a day, dissolved in corn oil (~15% v/v)

## ClC(Cl)(Cl)Cl [CC14]
  toxicity of the dose level (hepatotoxic / lethal): hepatotoxic but not lethal
